Source: patent publication US9770026B2, “Substituted pyrimidine compound and uses thereof” (Shenyang Sinochem Agrochemicals R&D Co., Ltd., priority 2012, dated 2017)

How the values were obtained:
[1] = test system: armyworm; assay: bioactivity test against armyworm, airbrush spray; type: in vivo
[2] = test system: carmine spider mite; assay: bioactivity test against carmine spider mite, airbrush spray; type: in vivo; settings: contrastive test; for pest or weed control at 100 µg/mL: 100 mg/L
How it was run: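 Broadbean seedlings infested with adult mites were sprayed with compound (acetone/methanol stock diluted in 0.1% Tween 80 water) by airbrush at 0.7 kg/cm^2, 0.5 ml. Three replicates were run. Mortality was scored after 72 hrs.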

[3] = test system: Diamond back moth; assay: insecticidal activity against diamond back moth, airbrush spray; type: in vivo; settings: for pest or weed control at 10 µg/mL / pest or weed control at 100 µg/mL / pest or weed control at 600 µg/mL: 72 h
How it was run: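 Airbrush leaf-disc spray test: both faces of 2 cm cabbage discs received 0.5 ml of test solution at 0.7 kg/cm^2. Solutions were made in acetone:methanol (1:1) and brought to concentration with 0.1% Tween 80 in water. Ten second-instar larvae per disc, triplicates, were held at 25° C and 60˜70% R.H., with mortality recorded at 72 hrs.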

[4] = test system: wheat powdery mildew; assay: protectant activity in vivo against wheat powdery mildew; settings: protectant activity; for pest or weed control at 6.25 µg/mL / pest or weed control at 25 µg/mL / pest or weed control at 100 µg/mL / pest or weed control at 400 µg/mL: Triticum aestivum, 168 h; for pest or weed control at 6.25 µg/mL: read-out: control effect against wheat powdery mildew (%), 6.25 mg/L; for pest or weed control at 25 µg/mL: read-out: control effect against wheat powdery mildew (%), 25 mg/L; for pest or weed control at 100 µg/mL: read-out: control effect against wheat powdery mildew (%), 100 mg/L; for pest or weed control at 400 µg/mL: read-out: control effect against wheat powdery mildew (%), 400 mg/L
[5] = test system: Green peach aphids (Myzus Persicae Sulzer); assay: bioactivity test against green peach aphid, airbrush foliar spray; type: in vivo; settings: contrastive test; for pest or weed control at 10 µg/mL / pest or weed control at 100 µg/mL / pest or weed control at 600 µg/mL: Myzus persicae, foliar, 48 h, read-out: Insecticidal activity against peach aphid (%)
How it was run: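 Death rate was scored at 48 hrs, held at 25±1 C and 60±5% RH, following airbrush foliar spray (0.5 mL, 10 psi) onto cabbage leaf discs bearing about 15-30 aphids. Test solutions: compound dissolved in 1:1 acetone:methanol, brought to concentration with 0.1% tween 80 water.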

[6] = test system: corn rust; assay: protectant activity in vivo against corn rust; settings: protectant activity; for pest or weed control at 6.25 µg/mL / pest or weed control at 25 µg/mL / pest or weed control at 100 µg/mL / pest or weed control at 400 µg/mL: Zea mays, 168 h; for pest or weed control at 6.25 µg/mL: read-out: control effect against corn rust (%), 6.25 mg/L; for pest or weed control at 25 µg/mL: read-out: control effect against corn rust (%), 25 mg/L; for pest or weed control at 100 µg/mL: read-out: control effect against corn rust (%), 100 mg/L; for pest or weed control at 400 µg/mL: read-out: control effect against corn rust (%), 400 mg/L
[7] = 72 h, 600 mg/L, read-out: Insecticidal activity against armyworm (%)
[8] = Tetranychus cinnabarinus, 72 h, read-out: Insecticidal activity against carmine spider mite (% )
[9] = Tetranychus cinnabarinus, 72 h, 600 mg/L, read-out: Insecticidal activity against carmine spider mite (% )

SMILES | pest or weed control at 600 µg/mL [1, 7] | pest or weed control at 100 µg/mL [2, 8] | pest or weed control at 600 µg/mL [2, 9] | pest or weed control at 10 µg/mL ([3]; 10 mg/L) | pest or weed control at 100 µg/mL ([3]; 100 mg/L) | pest or weed control at 600 µg/mL ([3]; 600 mg/L) | pest or weed control at 6.25 µg/mL [4] | pest or weed control at 25 µg/mL [4] | pest or weed control at 100 µg/mL [4] | pest or weed control at 400 µg/mL [4] | pest or weed control at 10 µg/mL ([5]; 10 mg/L) | pest or weed control at 100 µg/mL ([5]; 100 mg/L) | pest or weed control at 600 µg/mL ([5]; 600 mg/L) | pest or weed control at 6.25 µg/mL [6] | pest or weed control at 25 µg/mL [6] | pest or weed control at 100 µg/mL [6] | pest or weed control at 400 µg/mL [6] | other results
FC(F)(F)c1ccc(Oc2ccc(CCNc3ncnc4ccccc34)cc2)nc1 [CK12, reference compound] | 86% | 41% | 100% | 0% | 35% | 100% | 0% | 0% | 30% | 80% | 73% | 100% | 100% | 75% | 85% | 100% | 100% | pest or weed control at 10 µg/mL ([1]; 72 h, 10 mg/L, read-out: Insecticidal activity against armyworm (%)): 0%; pest or weed control at 100 µg/mL ([1]; 72 h, 100 mg/L, read-out: Insecticidal activity against armyworm (%)): 20%
Cc1ncnc(NC(C)c2ccc(Oc3ccc(C(F)(F)F)cc3Cl)cc2)c1Cl (stereo not drawn) [CK30, reference compound] | 57% | 100% | 100% | – | – | 0% | 0% | 20% | 80% | 100% | 0% | 50% | 93% | 0% | 0% | 0% | 0% | pest or weed control at 10 µg/mL ([2]; Tetranychus cinnabarinus, 72 h, 10 mg/L, read-out: Insecticidal activity against carmine spider mite (% )): 28%
CCc1ncnc(NCc2ccc(Oc3nc(Cl)c(Cl)cc3Cl)cc2)c1Cl [CK36, reference compound] | 0% | – | 0% | 0% | 0% | 20% | 0% | 60% | 80% | 100% | 0% | 14% | 90% | 0% | 40% | 60% | 100% | –
CC(Cl)c1ncnc(NCCc2ccc(Oc3ncc(C(F)(F)F)cc3Cl)cc2)c1Cl (stereo not drawn) [CK44, reference compound] | – | – | – | – | – | – | – | – | – | – | – | – | – | – | – | – | – | Insecticidal activity against armyworm (%) ([1]; 600 mg/L): 0%; Insecticidal activity against carmine spider mite (% ) ([2]; 600 mg/L): 0%; Insecticidal activity against diamond back moth (%) ([3]; 10 mg/L): 10%; Insecticidal activity against diamond back moth (%) ([3]; 100 mg/L): 25%; Insecticidal activity against diamond back moth (%) ([3]; 600 mg/L): 80%; control effect against wheat powdery mildew (%) ([4]; 400 mg/L): 0%; Insecticidal activity against peach aphid (%) ([5]; 2.5 mg/L): 0%; Insecticidal activity against peach aphid (%) ([5]; 5 mg/L): 19%; Insecticidal activity against peach aphid (%) ([5]; 10 mg/L): 35%; Insecticidal activity against peach aphid (%) ([5]; 100 mg/L): 98%; Insecticidal activity against peach aphid (%) ([5]; 600 mg/L): 100%; control effect against corn rust (%) ([6]; 400 mg/L): 85%
